In patent US12629390B2, “Stabilized amorphous calcium carbonate for treatment of neurological, muscular and infertility diseases or conditions” (AMORPHICAL LTD., priority 2016, dated 2026):

Tests used:
[1] = system: healthy skeletal muscle cultures; assay: myotube formation and contraction in healthy skeletal muscle cultures; format: cell-based, rat; details: added at 1 mM (final Ca2+ 2 mM)
Protocol: Stationary skeletal muscle cultures were prepared from healthy 1 day new born rat (Sprague Dawley, Harlan, Israel). The muscle tissue was dissected from posterior legs and was thoroughly minced. Digestion was performed with Trypsin-EDTA while gentle trituration. After 30 min the supernatant, containing dissociated cells, was collected and a fresh Trypsin-EDTA was added. This procedure was repeated two more times. Then, all supernatants were pooled, centrifuged, and the cell pellet was re-suspended in Proliferation Medium. Cells were seeded in a Gelatin coated 12 wells culture plates, 1×10^5 cells/well containing 1 mL of Proliferation Medium. Two days later, the medium was changed to Fusion Medium, which was then changed twice a week. The cultures were monitored by daily phase contrast microscopic observations from 24 hours after setting the cultures and onward.
Stock solution of 1% porcine gelatin in water, was sterilized by autoclave. Once cooled, 500 μl of the solution were added to each well of the 12-wells culture plat. After incubation for 20 min at room temperature, the excess solution was removed, and the cells were seeded.
For the proliferation stage, cells were cultured in: DMEM/F12 (containing 1 mM Ca^2+) +10% FBS, 25 μg/mL Gentamycin, and 2 mM L-Glutamine.
For the fusion stage the Proliferation Medium was changed with Fusion Medium, which was prepared as following: DMEM/F12 (containing 1 mM Ca2+), 2% horse serum (HS), 2 mM L-Glutamine, 25 μg/mL Gentamycin, and 4 units/100 mL Insulin (all purchased from Biological-Industries, Israel).
Control cultures were grown without further added calcium, or cultures enriched with free (soluble) stabilizer. The experiment was blinded by marking the various calcium preparations with arbitrary numerals only.
The components were added in one of the following ways: (i) aqueous suspensions of dry material; (ii) aqueous suspension of fresh material (before drying), or (iii) dissolved with HCl (to mimic the acidity which exists in the stomach. After dissolving was accomplished, the formed solutions were neutralized with 1M NaOH).

[2] = system: MBA-13 cells; assay: Alizarin red staining of MBA13 stem cells differentiating to osteoblasts; format: cell-based; details: 10 days in culture
Protocol: Two days following thawing, MBA-13 cells (received from Prof. Dov Zipori, Weizmann Institute of Science) were re-suspended in recombinant trypsin solution and seeded on a 96 wells plate, (Day “0”) in a concentration of 1×10^4 cells/well using MSC Nutristem® XF basal medium (Biological Industries, cat #05-200-1A) supplemented with Mesenchymal stem cells (MSC) supplement mix medium (Biological Industries cat #05-201-06) in a ratio of 50 ml:300 μl. […] Row G in the plate was treated with MSCgo medium (total 1.488 mM calcium). Row H of the plate was treated with MSC NutriStem® XF nutrient basal medium+supplement mix (total 1.488 mM calcium). On day 4, medium was exchanged with fresh preparations of ACC. […] Once the cells were fixated, two types of staining reagents were used to stain extracellular calcium or bone deposition in order to estimate osteoblasts functionality: (i) Alizarin red (Sigma A55333) and (ii) Alkaline Phosphatase (DAKO BCIP/NBT substrate system […]) as following: Alizarin red staining procedure-pH was adjusted to 4.2. Cells were washed twice with PBS and fixed with cold methanol for 5 minutes and then washed again with PBS. […] Following staining incubation, the samples were washed with water 2-3 times to remove unspecific staining.

SMILES: [Ca+2].[Cl-].[Cl-] [CaCl2, calcium chloride]
- muscle fibers after 7 days [1]: fewer, thinner and shorter muscle fibers
- early formation of many myotubes, time of cultivation ([1]; dry powder suspended in water): later
- Alizarin Red staining signal ([2]; additional 1 mM calcium in MSCgo rapid osteogenic medium, gelatin coating): weak signal
- large calcium deposition plaques ([2]; additional 1 mM calcium): not observed
